Reference: patent US20100143459A1, “PHARMACEUTICAL DOSAGE FORM FOR ORAL ADMINISTRATION OF TYROSINE KINASE INHIBITOR” (ABBOTT GMBH & CO. KG, priority 2006, published 2010)

Assay: Pharmacokinetics in humans after a 10 mg tablet under fasting conditions
Assay type: in vivo
Conditions: human patients, single 10 mg oral dose, mean±SD
Protocol: Tablets containing a 10 mg dose of ABT-869 ethanolate, as prepared above, were administered to 11 patients in the morning with 240 mL of water under fasting conditions (defined as no food or drink consumption except water and concomitant medications for 2 hours prior to dosing). Following dosing, 4-mL blood samples were collected for pharmacokinetic analyses at the following times: 0 (pre-dose), 1, 3, 4, 6, 8, 24 and 48 hours. These samples were analyzed for ABT-869 plasma concentrations using Liquid Chromatography/Tandem Mass Spectrometry (LCMS/MS). The lower limit of quantification (LLOQ) for the assay was 1.1 ng/mL.
Pharmacokinetic parameters including the maximum observed plasma concentration (Cmax), time to Cmax (Tmax), the area under the plasma concentration-time curve (AUC) from 0 to time of the last measurable concentration (AUC0-48) and AUC from 0 to infinite time (AUCoo) were determined by non-compartmental methods using WinNonlin Professional version 5.2 software.

Cc1ccc(F)c(NC(=O)Nc2ccc(-c3cccc4[nH]nc(N)c34)cc2)c1 [ABT 869, N-[4-(3-amino-1H-indazol-4-yl)phenyl]-N′-(2-fluoro-5-methylphenyl)-urea]
AUC0-48 per mg of dose: about 0.40±0.10 μg·h/mL/mg | AUCoo per mg of dose: about 0.55±0.17 μg·h/mL/mg | Cmax per mg of dose: about 0.023±0.004 μg/mL/mg | Tmax (plasma): ~2.8 h
